Activity calls are given as the source filed them. The calls are words filed in the database; no cut-off is given here.
Key:
MCF7 [1] = test: Inhibition of 17-beta-estradiol induced MCF-7 cell proliferation; type: functional, cell-based; settings: Homo sapiens
[2] = target: Estrogen receptor (Homo sapiens) (UniProt Q92731+P03372); test: Relative binding affinity(RBA) as displacement of [3H]17-beta-estradiol from MCF-7 cell lysate;NA=not active; type: cell-based
MCF7 [3] = test: Inhibition of 17-beta-estradiol induced MCF-7 cell proliferation;NA=not active; type: functional, cell-based; settings: Homo sapiens
MCF7 [4] = test: Inhibition of 17-beta-estradiol induced MCF-7 cell proliferation; NA=not active; type: functional, cell-based; settings: Homo sapiens

| Compound | IC50 (MCF7 [1]) | also measured |
| --- | --- | --- |
| COc1ccc2c(ccc3c4ccc(OC)cc4c(=O)n(-c4ccc(OCCN5CCCCC5)cc4)c23)c1 | – | NA [2]: inactive; NA (MCF7 [3]): inactive |
| C[C@]12CC[C@@H]3c4ccc(O)cc4CC[C@H]3[C@@H]1CC[C@@H]2O | – | NA (MCF7 [4]): inactive |
| O=c1c2cc(O)ccc2c2ccc3cc(O)ccc3c2n1-c1ccc(OCCN2CCCCC2)cc1 | – | NA (MCF7 [3]): inactive |

Continued, in another order:

| IC50 (MCF7 [1]) | Compound | also measured |
| --- | --- | --- |
| 1 nM | Oc1ccc2c(c1)CN(c1ccc(OCCN3CCCCC3)cc1)c1c-2ccc2cc(O)ccc12 | – |
| 128 nM | O=c1c2cc(O)ccc2c2c(n1-c1ccc(OCCN3CCCCC3)cc1)-c1ccc(O)cc1CC2 | – |
| 287 nM | COc1ccc2c(c1)CN(c1ccc(OCCN3CCCCC3)cc1)C1=C2CCc2cc(OC)ccc21 | – |
| 19 nM | COc1ccc2c(c1)CN(c1ccc(OCCN3CCCCC3)cc1)c1c-2ccc2cc(OC)ccc12 | – |

— ChEMBL document CHEMBL1134571, “Photochemical synthesis of N-arylbenzophenanthridine selective estrogen receptor modulators (serms)” (J Med Chem, 2001)
